Experimental findings from ChEMBL document CHEMBL4680133, “Novel nitroimidazole derivatives evaluated for their trypanocidal, cytotoxic, and genotoxic activities” (Eur J Med Chem, 2020) are described below.

The data set is described as follows: Genotoxicity in human HepG2 assessed as survival at 213 uM measured after 24 hrs by micronucleus test (reference value: 100%). The data set is classed as toxicity, cell-based. As to conditions: HepG2 cells, read-out: Survival.

On to `Cn1cnc([N+](=O)[O-])c1-n1cc(C2CC2)nn1`, for which the viability at 24 h, 213 µM was 99%.
